Laboratory results taken from patent publication US20260306463A1, “SIK INHIBITORS TO TREAT CHRONIC KIDNEY DISEASE” (The General Hospital Corporation, priority 2023, published 2026).
Entries after “also recorded” stand apart in the source; their conditions may differ.

What was measured:
kidney cell clusters = assay: single cell RNA-sequencing of dissociated kidneys, adenine CKD mice; assay type: in vivo, mouse; details: SK-124 vs vehicle, adenine diet
Method: FIGS. 6A-6F. The effects of SK-124 treatment at the transcriptomic level in adenine-induced mouse chronic kidney disease. RNA-seq was performed on whole kidney RNA samples (n=7/group) from FIG. 1. Volcano plot show gene regulated (>2-fold change, p(adj)<0.05) by CKD (versus control diet, A) or in CKD by SK-124 (versus vehicle control, B). In Volcano plot, representative fibrosis markers (Col3a1, Vim, Serpinel) and proximal tubule integrity (Lrp2. Atplai, and Hnf4a) are shown. Scatterplot (C) and heatmap (D) showing integration of individual RNA-seq comparisons. […] (E) Single cell RNA-sequencing was performed on dissociated kidneys from adenine diet fed mice treated with vehicle or SK-124 (n=4/group). […] (F) Relative cellularity of each annotated cluster is shown in pie chart format for adenine+vehicle (CKD-Veh) or adenine+SK-124 (CKD-SK-124) mice.
To perform single cell RNA sequencing, mouse kidneys were harvested and immediately dissociated in liberase TH (Millipore Sigma, 05401135001) at 37 degrees for 1 hour at 600 rpm. After removing red blood cells using red blood cell lysis buffer (Sigma, R7757), the cells were further dissociated in Accumax (Stemcell Technologies, 7921) and submitted to MGH Department of Molecular Biology for gel beads in emulsion (GEM) formation and subsequent single cell RNA sequencing using the 10× Genomics Chromium 3′ droplet-based sequencing platform. The CellRanger toolkit (v6.0.2) by 10× Genomics was used to 1) align the sequencing reads to the mouse reference transcriptome (mm10). 2) quantify gene expression, resulting in gene-by-cell UMI count matrices, and 3) aggregate all samples into a single feature barcode matrix containing all the data for downstream analysis. All single cell data analysis was performed in the R software environment for statistical computing and graphics using the package Seurat.

human kidney organoids [1] = assay: RT-qPCR in cisplatin-injured human kidney organoids; assay type: cell-based; details: for proximal tubule marker genes / fibrosis/injury marker genes: panel; for fibrosis/injury marker genes: five cisplatin cycles (FIG. 12B)
Description: FIG. 8. SK-124 treatment restores gene expression changes in cisplatin-injured human kidney organoids. RNA was isolated from organoids treated as in FIG. 7 for RT-qPCR for the indicated genes. Injury markers (Pai-1, Fibronectin-1, and Co18a1) are induced by cisplatin treatment and reduced by SK-124. In contrast, the proximal tubule marker Lrp2 is reduced by cisplatin treatment and rescued by SK-124.
FIGS. 10A-10B. SK-124 treatment restores gene expression changes in cisplatin-injured human kidney organoids. RNA was isolated from organoids treated as in FIG. 9 with the indicated number of cisplatin cycles plus DMSO control (“Cis”) or SK-124 (10 μM; “Cis+SK”) for RT-qPCR. […] (B) Injury/fibrosis markers (FN-1, Co/8a1, and Pai-1) were induced by cisplatin and suppressed by SK-124.
FIGS. 12A-12B. SK-124 protects human kidney organoids from cisplatin injury in a dose-dependent manner. RNA was isolated from organoids treated as in FIG. 11 for RT-qPCR. (A) Proximal tubule marker genes are reduced by cisplatin and increased by SK-124. (B) Fibrosis/injury marker genes are induced by cisplatin and reduced by SK-124.
BJFF human induced pluripotent stem cells (hPSCs) were maintained on Geltrexcoated (Thermo Fisher Scientific) plates using StemFit Basic04 Complete (Ajinomoto Co. Inc.) as previously reported(25). The cells were passaged weekly using Accutase (STEMCELL Technologies) for dissociation and Y27632 (Tocris) for adhesion. Directed differentiation of hPSCs into kidney organoids has been published elsewhere (29). Briefly, hPSCs were differentiated into metanephric mesenchyme cells on day 8 by a three-step directed differentiation protocol. Metanephric mesenchyme was transferred into suspension culture in 96-well ultralow adhesion plates (Coming) and further differentiated into kidney organoids, as previously reported(25). Quality control measures of SIX2 immunostaining on day 8 of differentiation and CDH1, LTL, PODXL, CD146, MEIS1/2/3, and SYTOX-blue staining on day 21 were performed on all batches of kidney organoids to limit batch-to-batch heterogeneity. Kidney organoids were maintained in 200 μl of basal media consisting of Advanced RPMI (Thermo Fisher Scientific) and GlutaMAX (Thermo Fisher Scientific) in 96-well plates, as previously reported. Media changes were conducted three times weekly with removal of 90 [l and addition of 100 μl of fresh basal media.
For cisplatin induced injury, day 49 organoids were treated with 5 μM cisplatin in basal media after full media change. After 24 hours, full media exchanges were performed. This 24-hour treatment was performed twice a week, on day 52-53, day 56-57, day 59-60, and day 63-64 as well, for a total of five cisplatin treatments. Samples were obtained for RT-qPCR and immunostaining immediately following each 24-hour treatment with cisplatin, and from corresponding controls.
cDNA was prepared using Primescript RT kit (Takara Inc), with 750 ng RNA per reaction. RT-qPCR was performed by using PerfeCa® SYBR® Green FAstMix® ROX (Quanta bio) in the StepOnePlus™ Real-time PCR System (Applied Biosystems). Hmbs was used as a control housekeeping gene for mouse samples, and B-Actin was used for organoids, relative expression was calculated (2^-deltaCT method) and compared to the mean of control group if necessary. Primers used for RT-qPCR are listed in Table 2 (mouse primers) and Table 3 (human primers).

human kidney organoids [2] = assay: RNA-seq of cisplatin-injured human kidney organoids; assay type: cell-based; details: for injury markers (Col8al, Fibronectin-1, Serpinel) / markers of intact proximal integrity (Lrp2 and Hnf4a): RNA-seq, cisplatin vs vehicle, or SK-124 vs DMSO within cisplatin-treated organoids
Method: FIGS. 13A-13E. Transcriptomic effects of SK-124 in cisplatin-induced human kidney organoid model. RNA-seq was performed on kidney organoid RNA samples (n=4/group) from FIG. 8. Volcano plot show gene regulated (>2-fold change, p(adj)<0.05) by cisplatin (versus vehicle, A) or within cisplatin-treated organoids by SK-124 (versus DMSO control, B). In Volcano plot, representative fibrosis/injury markers (Col8a1, Fni, Serpinel) and proximal tubule integrity (Lrp2 and Hnf4a) are shown. Scatterplot (C) and heatmap (D) showing integration of individual RNA-seq comparisons.
Isolated RNA samples from the mouse adenine diet study and human kidney organoid experiment were submitted to Novogene and bulk-RNA sequencing on NovaSeq X Plus Ilumina Novoseq Platform. Sequencing reads were mapped to the mouse reference genome (mm10/GRCm38) or human reference genome (GRCh38/hg38) using Salmon and differential gene expression analysis was performed using DESeq2.

[3] = 5 cisplatin treatments (FIG. 8)
[4] = 5 cisplatin treatments (FIG. 8), Co18a1 [sic]
[5] = dose response, five cisplatin cycles (FIG. 12)
[6] = dose response, five cisplatin cycles (FIG. 12A)
[7] = time course, indicated number of cisplatin cycles, SK-124 10 μM (FIG. 10A)
[8] = time course, indicated number of cisplatin cycles, SK-124 10 μM (FIG. 10B)

| Structure (SMILES) | Fibronectin-1 expression (human kidney organoids [1]; [3]) | Lrp2 expression (human kidney organoids [1]; [3]) | Pai-1 expression (human kidney organoids [1]; [3]) | Col8a1 expression (human kidney organoids [1]; [4]) | Col8al expression (human kidney organoids [1]; [5]) | Fibronectin-1 expression (human kidney organoids [1]; [5]) | Pai-1 expression (human kidney organoids [1]; [5]) | Lrp2 expression (human kidney organoids [1]; [6]) | Pth1r expression (human kidney organoids [1]; [6]) | proximal tubule marker genes (human kidney organoids [1]; [6]) | fibrosis/injury marker genes (human kidney organoids [1]; dose response) | Lrp2 expression (human kidney organoids [1]; [7]) | Slc17a2 expression (human kidney organoids [1]; [7]) | Col8a1 expression (human kidney organoids [1]; [8]) | Fibronectin-1 (FN-1) expression (human kidney organoids [1]; [8]) | Pai-1 expression (human kidney organoids [1]; [8]) | injury markers (Col8al, Fibronectin-1, Serpinel) (human kidney organoids [2]) | markers of intact proximal integrity (Lrp2 and Hnf4a) (human kidney organoids [2]) | further results |
| --- | --- | --- | --- | --- | --- | --- | --- | --- | --- | --- | --- | --- | --- | --- | --- | --- | --- | --- | --- |
| CCc1nnc(-c2c(OC)cc(-c3cnc4cc(-c5cnn(C)c5)ccn34)cc2OC)o1 [SK-124, 2-[2,6-Dimethoxy-4-[7-(1-methylpyrazol-4-yl)imidazo[1,2-a]pyridin-3-yl]phenyl]-5-ethyl-1,3,4-oxadiazole] | reduced; also recorded: blocked | rescued; also recorded: preserved expression | reduced; also recorded: blocked | reduced; also recorded: blocked | suppressed | suppressed | suppressed | dose-dependent restoration | dose-dependent restoration | increased | reduced | restored; also recorded: improved expression | restored; also recorded: improved expression | suppressed expression | suppressed expression | suppressed expression | reduced | restored | fibroblast cluster cellularity (kidney cell clusters): reduces fibroblast cluster cellularity; injury markers (failed repair proximal tubule cells, fibroblasts, and myofibroblasts) (kidney cell clusters): reduced injury markers; numbers of healthy proximal tubule (epithelial) cells (kidney cell clusters): increases numbers of healthy epithelial cells; also recorded: increased numbers of healthy proximal tubule cells; doses at which therapeutic effects are noted in the injury model (human kidney organoids [1]; dose response, cisplatin-injured organoids): below 1 μM; genes regulated in cisplatin (versus control) (human kidney organoids [2]; scatterplot and heatmap, SK-124 vs DMSO in the setting of injury): conversely regulated |
| N.N.[Cl][Pt][Cl] [cisplatin, reference compound] | induced | reduced | induced | induced | induction | induction | induction | suppression | suppression | reduced | induced | progressively reduced | progressively reduced | induced | induced | induced | induced | reduced | – |
